Experimental data reported in ChEMBL document CHEMBL1201862, “PubChem BioAssay data set” (2004).
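48-hour exposure; five concentrations; linearly interpolated endpoints. GI50 marks 50% less growth.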 Active and inactive are the calls of the source. No stated cut-off is given here; in the data, active = GI50 up to about 1.1 µM and inactive = higher.

Key:
Assay in all cases: NCI tumour cell line growth inhibition, 48 h
RXF 393 = test system: RXF 393
HCT-15 = test system: HCT-15
SF-268 = test system: SF-268
Malme-3M = test system: Malme-3M
A498 = test system: A498
LXFL 529 = test system: LXFL 529
T47D = test system: T47D
NCI-H522 = test system: NCI-H522
RPMI-8226 = test system: RPMI-8226
SK-MEL-2 = test system: SK-MEL-2
UACC-257 = test system: UACC-257
786-0 = test system: 786-0
EKVX = test system: EKVX
HT-29 = test system: HT-29
OVCAR-4 = test system: OVCAR-4
HCT-116 = test system: HCT-116
HOP-62 = test system: HOP-62
A549 = test system: A549
U-251 = test system: U-251
OVCAR-5 = test system: OVCAR-5

For `O=C1c2ccccc2C(=O)c2sc(Nc3ccc(Cl)c(Cl)c3)nc21`, the GI50 (RXF 393) was 7.4 µM (inactive), the GI50 (HCT-15) was 2.26 µM and the GI50 (SF-268) was 4.97 µM (inactive). For the same compound, the GI50 (Malme-3M) was 4.16 µM (inactive), the GI50 (A498) was 16.6 µM (inactive) and the GI50 (LXFL 529) was 1.82 µM (inactive). The GI50 (T47D) was 4.03 µM (inactive), the GI50 (NCI-H522) was 2.07 µM (inactive) and the GI50 (RPMI-8226) was 2.02 µM (inactive). The GI50 (SK-MEL-2) was 8.26 µM (inactive), the GI50 (UACC-257) was 4.01 µM (inactive) and the GI50 (786-0) was 1.82 µM (inactive). The GI50 (EKVX) was 14.3 µM (inactive), the GI50 (HT-29) was 19.7 µM (inactive) and the GI50 (OVCAR-4) was 2.21 µM (inactive). The GI50 (HCT-116) was 3 µM (inactive), the GI50 (HOP-62) was 7.38 µM (inactive) and the GI50 (A549) was 23.5 µM (inactive). The GI50 (U-251) was 2.43 µM (inactive) and the GI50 (OVCAR-5) was 2.9 µM (inactive).
With `CSc1nc2c(c(O)c(C)c(=O)n2C2OC(COC(C)=O)C(OC(C)=O)C(OC(C)=O)C2OC(C)=O)c(=O)n1C` (configuration not stated) the GI50 (RXF 393) was > 100 µM (inactive), the GI50 (HCT-15) was > 100 µM and the GI50 (SF-268) was > 100 µM (inactive). The GI50 (Malme-3M) was > 100 µM (inactive), the GI50 (A498) was > 100 µM (inactive) and the GI50 (LXFL 529) was > 100 µM (inactive). For the same compound, the GI50 (NCI-H522) was > 100 µM (inactive), the GI50 (RPMI-8226) was < 0.01 µM (active) and the GI50 (SK-MEL-2) was > 100 µM (inactive). For the same compound, the GI50 (UACC-257) was > 100 µM (inactive), the GI50 (786-0) was > 100 µM (inactive) and the GI50 (EKVX) was > 100 µM (inactive). For the same compound, the GI50 (HT-29) was > 100 µM (inactive), the GI50 (OVCAR-4) was > 100 µM (inactive) and the GI50 (HCT-116) was > 100 µM (inactive). The GI50 (HOP-62) was > 100 µM (inactive), the GI50 (A549) was > 100 µM (inactive) and the GI50 (U-251) was > 100 µM (inactive). The GI50 (OVCAR-5) was > 100 µM (inactive).
With `N=C1OC(c2cccc(Cl)c2)C(NNS(=O)(=O)c2ccccc2)=C1O` (configuration not stated) the GI50 (RXF 393) was 15.7 µM (inactive), the GI50 (HCT-15) was 12.2 µM and the GI50 (SF-268) was 39.7 µM (inactive). For the same compound, the GI50 (Malme-3M) was 22.4 µM (inactive), the GI50 (A498) was > 100 µM (inactive) and the GI50 (LXFL 529) was 16.8 µM (inactive). The GI50 (T47D) was 10 µM (inactive), the GI50 (NCI-H522) was 10.6 µM (inactive) and the GI50 (RPMI-8226) was 10.9 µM (inactive). The GI50 (SK-MEL-2) was 24.9 µM (inactive), the GI50 (UACC-257) was 33.3 µM (inactive) and the GI50 (786-0) was 24.8 µM (inactive). The GI50 (EKVX) was 68.4 µM (inactive), the GI50 (HT-29) was 19.9 µM (inactive) and the GI50 (OVCAR-4) was 52.5 µM (inactive). For the same compound, the GI50 (HCT-116) was 21.3 µM (inactive), the GI50 (HOP-62) was > 100 µM (inactive) and the GI50 (A549) was 80.9 µM (inactive). The GI50 (U-251) was 33.3 µM (inactive) and the GI50 (OVCAR-5) was 31.9 µM (inactive).
In the case of `CN1CCC(=O)/C(=C/c2ccccc2)C1`, the GI50 (RXF 393) is reported as 13.7 µM (inactive), the GI50 (HCT-15) is reported as 7.06 µM and the GI50 (SF-268) is reported as 17.5 µM (inactive). The GI50 (Malme-3M) was 19.5 µM (inactive), the GI50 (A498) was 18.5 µM (inactive) and the GI50 (LXFL 529) was 6.32 µM (inactive). The GI50 (NCI-H522) was 8.95 µM (inactive), the GI50 (RPMI-8226) was 2.86 µM (inactive) and the GI50 (SK-MEL-2) was 20.5 µM (inactive). For the same compound, the GI50 (UACC-257) was 14.7 µM (inactive), the GI50 (786-0) was 12.5 µM (inactive) and the GI50 (EKVX) was 23 µM (inactive). For the same compound, the GI50 (HT-29) was 3.32 µM (inactive), the GI50 (OVCAR-4) was 17.9 µM (inactive) and the GI50 (HCT-116) was 1.78 µM (inactive). The GI50 (HOP-62) was 20.6 µM (inactive), the GI50 (A549) was 17.7 µM (inactive) and the GI50 (U-251) was 6.44 µM (inactive). The GI50 (OVCAR-5) was 15.7 µM (inactive).
In the case of `CN(C)c1ccc(Cc2cc(C(C)(C)C)cc(C(C)(C)C)c2O)cc1`, the GI50 (RXF 393) is reported as 16.4 µM (inactive), the GI50 (HCT-15) is reported as 15.8 µM and the GI50 (SF-268) is reported as 17.3 µM (inactive). The GI50 (Malme-3M) was 22.5 µM (inactive), the GI50 (A498) was 18.2 µM (inactive) and the GI50 (LXFL 529) was 15.2 µM (inactive). For the same compound, the GI50 (NCI-H522) was 18.4 µM (inactive), the GI50 (RPMI-8226) was 11.5 µM (inactive) and the GI50 (SK-MEL-2) was 6.87 µM (inactive). The GI50 (UACC-257) was 15.6 µM (inactive), the GI50 (786-0) was 18.5 µM (inactive) and the GI50 (EKVX) was 22.1 µM (inactive). For the same compound, the GI50 (HT-29) was 16.1 µM (inactive), the GI50 (OVCAR-4) was 21.3 µM (inactive) and the GI50 (HCT-116) was 13.2 µM (inactive). For the same compound, the GI50 (HOP-62) was 20.9 µM (inactive), the GI50 (A549) was 19.8 µM (inactive) and the GI50 (U-251) was 15.2 µM (inactive). The GI50 (OVCAR-5) was 6.27 µM (inactive).
`CC(=O)OC1CC[C@@]2(C)C(CC[C@]3(C)C2CC=C2[C@@H]4CC(C)(C)CCC4(C)CCC23C)[C@@]1(C)C(=O)O` (some centres not stated) was tested, and the GI50 (RXF 393) was 16.6 µM (inactive), the GI50 (HCT-15) was 7.93 µM and the GI50 (SF-268) was 18.2 µM (inactive). For the same compound, the GI50 (Malme-3M) was 21.4 µM (inactive), the GI50 (A498) was 19.2 µM (inactive) and the GI50 (LXFL 529) was 13.3 µM (inactive). For the same compound, the GI50 (T47D) was 15.4 µM (inactive), the GI50 (NCI-H522) was 5.77 µM (inactive) and the GI50 (RPMI-8226) was 10.8 µM (inactive). The GI50 (SK-MEL-2) was 15.7 µM (inactive), the GI50 (UACC-257) was 19.9 µM (inactive) and the GI50 (786-0) was 17.6 µM (inactive). For the same compound, the GI50 (EKVX) was 16.1 µM (inactive), the GI50 (HT-29) was 15.9 µM (inactive) and the GI50 (OVCAR-4) was 14.9 µM (inactive). For the same compound, the GI50 (HCT-116) was 13.2 µM (inactive), the GI50 (HOP-62) was 19.9 µM (inactive) and the GI50 (A549) was 7.41 µM (inactive). The GI50 (U-251) was 10.3 µM (inactive) and the GI50 (OVCAR-5) was 22.7 µM (inactive).
